Assay results published in patent publication US7659400B2, “Radiolabelled benzamide analogues, their synthesis and use in diagnostic imaging” (Washington University, priority 2003, dated 2010).
Changes are numbered by the printed parent chain. Several values for one entry are separate records, joined by “and”; a condition that tells them apart may be missing. Identical values can stand only once.

Columns and labels:
σ1 receptors [1] = target: σ1 receptors (Homo sapiens, UniProt Q99720); conditions: cited from earlier work
Sequence of σ1 receptors (Homo sapiens, UniProt Q99720) (Q99720 whole entry): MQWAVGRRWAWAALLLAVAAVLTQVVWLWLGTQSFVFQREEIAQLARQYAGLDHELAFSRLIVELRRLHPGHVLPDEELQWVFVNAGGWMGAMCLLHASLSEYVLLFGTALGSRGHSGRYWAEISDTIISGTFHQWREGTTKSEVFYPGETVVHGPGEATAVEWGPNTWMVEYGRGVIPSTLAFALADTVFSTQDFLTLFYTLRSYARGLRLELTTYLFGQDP

σ2 receptors [2] = target: σ2 receptors (Homo sapiens, UniProt Q5BJF2); conditions: cited from earlier work
Sequence of σ2 receptors (Homo sapiens, UniProt Q5BJF2) (Q5BJF2 whole entry): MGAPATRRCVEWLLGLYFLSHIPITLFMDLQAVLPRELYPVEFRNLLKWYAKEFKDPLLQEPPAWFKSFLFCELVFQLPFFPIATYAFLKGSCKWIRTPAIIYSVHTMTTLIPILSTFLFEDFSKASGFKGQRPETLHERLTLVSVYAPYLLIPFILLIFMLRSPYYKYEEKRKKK

σ2 receptors [3] = target: T1, σ2 receptors (Mus musculus, UniProt Q8VD00); assay: Blocking study: co-injection of 1 mg/kg YUN-143 in EMT-6 tumor-bearing mice; format: in vivo; conditions: 1 mg/kg YUN-143, 1 h post-injection
T1 construct: from tissue; host or cells: EMT-6 tumours in female Balb/c mice, in vivo
T1 sequence (Q8VD00 1-176): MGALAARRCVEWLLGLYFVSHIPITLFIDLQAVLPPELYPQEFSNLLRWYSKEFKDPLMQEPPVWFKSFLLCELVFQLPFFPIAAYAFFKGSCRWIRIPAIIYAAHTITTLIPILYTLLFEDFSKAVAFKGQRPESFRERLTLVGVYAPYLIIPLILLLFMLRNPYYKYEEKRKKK
Protocol: These blocking studies in tumor-bearing mice were conducted by co-injecting 1 mg/kg of cold N-(4-fluorobenzyl) piperidinyl-4-(3-bromophenyl)acetamide (YUN-143) with [^18F]3c or [^18F]3f.

EMT-6 tumors = assay: Biodistribution of 18F-labeled ligands in mice bearing EMT-6 tumors; format: in vivo, female Balb/c mice
Protocol: This example illustrates in vivo evaluation of compounds of the present teachings. All animal experiments were conducted in compliance with the Guidelines for the Care and Use of Research Animals established by Washington University's Animal Studies Committee. EMT-6 mouse mammary adenocarcinoma cells (5×10^5 cells in 100 uL of phosphate-buffered saline) were implanted subcutaneously in the scapular region of female Balb/c mice (˜2-month old and 17-22 g; Charles River Laboratories). […] Groups of at least 4 mice were used for each time point. […] After counting, the percentage of the injected dose per gram of tissue (%ID/g) was calculated. The tumor/organ ratios were calculated by dividing the %ID/g of the tumor by the %ID/g of each organ.

σ2 receptors [4] = target: T2, σ2 receptors (Rattus norvegicus, UniProt Q5U3Y7); assay: σ2 receptor binding assay, [^3H]DTG in the presence of (+)-pentazocine, rat liver membrane homogenates
T2 construct: conducted using rat liver membrane homogenates; from tissue; host or cells: rat liver membrane homogenates
T2 sequence (Q5U3Y7 1-176): T1 sequence (Q8VD00 1-176) with L4V, A5T, L26M, V33L, L71F, A105V, L118I, V127I, S136N, Y169F
Protocol: The incubation time was 120 min at room temperature. […] All other procedures were identical to those described for the σ1 receptor binding assay above.

σ1 receptors [5] = target: T3, σ1 receptors (Cavia porcellus, UniProt Q60492)
T3 sequence (Q60492 whole entry): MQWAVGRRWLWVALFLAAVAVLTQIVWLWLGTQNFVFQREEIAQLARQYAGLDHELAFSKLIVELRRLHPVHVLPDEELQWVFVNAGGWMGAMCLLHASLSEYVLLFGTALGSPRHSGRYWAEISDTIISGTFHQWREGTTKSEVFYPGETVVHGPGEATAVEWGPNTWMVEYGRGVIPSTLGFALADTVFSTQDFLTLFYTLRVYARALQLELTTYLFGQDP
Protocol: (§1) In these assays, the novel sigma ligands were dissolved in N,N-dimethylformamide (DMF), DMSO or ethanol, and then diluted in 50 mM Tris-HCl buffer containing 150 mM NaCl and 100 mM EDTA at pH 7.4 prior to performing the σ1 and σ2 receptor binding assays. […] The samples were harvested and filtered rapidly through a 96-well fiber glass filter plate (millipore, Billerica, Mass.) that had been presoaked with 100 μL of 50 mM Tris-HCl buffer at pH 8.0 for 1 h.
(§2) The Ki values were determine from Scatchard plots.

σ1 receptors [6] = target: T3, σ1 receptors; assay: σ1 receptor binding assay, [^3H](+)-pentazocine, guinea pig brain membrane homogenates; conditions: spacer group four carbons (3c) versus two carbons (3a)
Protocol: as §1, §2

[7] = Log D calculated using the program ACD/log D; conditions: spacer group four carbons (3c) versus two carbons (3a)

O=C(Cc1cccc(Br)c1)NC1CCN(Cc2ccc(F)cc2)CC1 [YUN-143, N-(4-fluorobenzyl)piperidinyl-4-(3-bromophenyl) acetamide]
affinity for σ1 receptors (in words) (σ1 receptors [1]): high affinity | affinity for σ2 receptors (in words) (σ2 receptors [2]): high affinity

COc1cc2c(cc1OC)CN(CCCCNC(=O)c1cc(I)cc(OC)c1OCC[18F])CC2 [[^18F]3f]
decrease in the tumor:fat ratio on co-injection of YUN-143 (σ2 receptors [3]): ~50% | decrease in the tumor:muscle ratio on co-injection of YUN-143 (σ2 receptors [3]): ~50% | Biodistribution: blood (EMT-6 tumors; 5 min after i.v. injection): 1.82 ± 0.25 %ID/g | Biodistribution: bone (EMT-6 tumors; 5 min after i.v. injection): 2.23 ± 0.56 %ID/g | Biodistribution: brain (EMT-6 tumors; 5 min after i.v. injection): 0.71 ± 0.09 %ID/g | Biodistribution: fat (EMT-6 tumors; 5 min after i.v. injection): 4.13 ± 0.86 %ID/g | Biodistribution: heart (EMT-6 tumors; 5 min after i.v. injection): 5.60 ± 0.45 %ID/g | Biodistribution: kidney (EMT-6 tumors; 5 min after i.v. injection): 19.98 ± 1.66 %ID/g | Biodistribution: liver (EMT-6 tumors; 5 min after i.v. injection): 15.21 ± 2.21 %ID/g | Biodistribution: lung (EMT-6 tumors; 5 min after i.v. injection): 18.47 ± 3.07 %ID/g | Biodistribution: muscle (EMT-6 tumors; 5 min after i.v. injection): 2.50 ± 0.33 %ID/g | Biodistribution: tumor (tumor uptake) (EMT-6 tumors; 5 min after i.v. injection): 3.05 ± 0.43 %ID/g | Biodistribution: blood (EMT-6 tumors; 30 min after i.v. injection): 1.23 ± 0.28 %ID/g | Biodistribution: bone (EMT-6 tumors; 30 min after i.v. injection): 2.01 ± 0.53 %ID/g | Biodistribution: brain (EMT-6 tumors; 30 min after i.v. injection): 0.27 ± 0.04 %ID/g | Biodistribution: fat (EMT-6 tumors; 30 min after i.v. injection): 1.36 ± 0.50 %ID/g | Biodistribution: heart (EMT-6 tumors; 30 min after i.v. injection): 1.54 ± 0.31 %ID/g | Biodistribution: kidney (EMT-6 tumors; 30 min after i.v. injection): 7.73 ± 2.25 %ID/g | Biodistribution: liver (EMT-6 tumors; 30 min after i.v. injection): 10.73 ± 2.98 %ID/g | Biodistribution: lung (EMT-6 tumors; 30 min after i.v. injection): 3.75 ± 0.58 %ID/g | Biodistribution: muscle (EMT-6 tumors; 30 min after i.v. injection): 0.73 ± 0.14 %ID/g | Biodistribution: tumor (tumor uptake) (EMT-6 tumors; 30 min after i.v. injection): 3.11 ± 0.16 %ID/g | Biodistribution: tumor (tumor uptake) (EMT-6 tumors; 60 min (1 h) after i.v. injection): 2.15 %ID/g and 2.15 ± 0.25 %ID/g | Biodistribution: blood (EMT-6 tumors; 60 min after i.v. injection): 0.65 ± 0.09 %ID/g | Biodistribution: bone (EMT-6 tumors; 60 min after i.v. injection): 0.93 ± 0.16 %ID/g | Biodistribution: brain (EMT-6 tumors; 60 min after i.v. injection): 0.14 ± 0.02 %ID/g | Biodistribution: fat (EMT-6 tumors; 60 min after i.v. injection): 0.47 ± 0.07 %ID/g | Biodistribution: heart (EMT-6 tumors; 60 min after i.v. injection): 0.69 ± 0.06 %ID/g | Biodistribution: kidney (EMT-6 tumors; 60 min after i.v. injection): 3.50 ± 0.80 %ID/g | Biodistribution: liver (EMT-6 tumors; 60 min after i.v. injection): 5.57 ± 0.31 %ID/g | Biodistribution: lung (EMT-6 tumors; 60 min after i.v. injection): 1.51 ± 0.13 %ID/g | Biodistribution: muscle (EMT-6 tumors; 60 min after i.v. injection): 0.40 ± 0.07 %ID/g | Biodistribution: tumor (tumor uptake) (EMT-6 tumors; 120 min (2 h) after i.v. injection): 1.15 %ID/g and 1.15 ± 0.23 %ID/g | Biodistribution: blood (EMT-6 tumors; 120 min after i.v. injection): 0.28 ± 0.01 %ID/g | Biodistribution: bone (EMT-6 tumors; 120 min after i.v. injection): 0.59 ± 0.09 %ID/g | Biodistribution: brain (EMT-6 tumors; 120 min after i.v. injection): 0.08 ± 0.01 %ID/g | Biodistribution: fat (EMT-6 tumors; 120 min after i.v. injection): 0.17 ± 0.05 %ID/g | Biodistribution: heart (EMT-6 tumors; 120 min after i.v. injection): 0.39 ± 0.04 %ID/g | Biodistribution: kidney (EMT-6 tumors; 120 min after i.v. injection): 1.34 ± 0.10 %ID/g | Biodistribution: liver (EMT-6 tumors; 120 min after i.v. injection): 2.61 ± 0.69 %ID/g | Biodistribution: lung (EMT-6 tumors; 120 min after i.v. injection): 0.74 ± 0.03 %ID/g | Biodistribution: muscle (EMT-6 tumors; 120 min after i.v. injection): 0.15 ± 0.01 %ID/g | tumor:fat ratio (EMT-6 tumors; 2 h after i.v. injection): ~7 | tumor:muscle ratio (EMT-6 tumors; 2 h after i.v. injection): ~8 | clearance from the blood (in words) (EMT-6 tumors; mouse, in vivo): rapid clearance from the blood

COc1cc2c(cc1OC)CN(CCCCNC(=O)c1cc(C)ccc1OCCF)CC2 [compound 3c, N-[6,7-dimethoxy-3,4-dihydro-1H-isoquinolin-2-yl-butyl]-2-(2-fluoro-ethoxy)-5-methyl-benzamide]
σ1:σ2 Ratio (σ2 receptors [4]; ratio of Ki values): 48 | increase in the affinity for σ2 receptors relative to 3a (σ2 receptors [4]; spacer group four carbons (3c) versus two carbons (3a)): 15 fold | Ki (σ1 receptors [5]): 330 ± 25 nM | increase in the affinity for σ1 receptors relative to 3a (σ1 receptors [6]): 69 fold | increase in the log D value relative to 3a [7]: 0.5 unit
